From patent publication EP2662361A1, “Pyrazol indanyl carboxamides” (Bayer CropScience AG, priority 2012, dated 2013)

Test: physchem
Type: physicochemical
Settings: reversed-phase c18 hplc, pH 2.7
Description: The logP values were measured in accordance with EEC Directive 79/831 Annex V.A8 by HPLC (High Performance Liquid Chromatography) using reversed-phase columns (C 18) by the following methods: • [a] The LC-MS determination in the acidic range is effected at pH 2.7 with 0.1% aqueous formic acid and acetonitrile (contains 0.1 % formic acid) as eluents; linear gradient from 10 % acetonitrile to 95 % acetonitrile.

Q: Which chromatographic logP does the source give for `Cn1cc(C(=O)Nc2cccc3c2CC(O)C3)c(C(F)F)n1` (stereo not drawn) [compound 1] here?
A: Its chromatographic logP is 1.42.

Q: With `CC(C)OC1Cc2cccc(NC(=O)c3cn(C)nc3C(F)F)c2C1` (stereo not drawn) [compound 2] as the compound, how does the chromatographic logP read?
A: The chromatographic logP was 2.71.

Q: Which chromatographic logP does the source give for `CC(C)C1Cc2cccc(NC(=O)c3cn(C)nc3C(F)F)c2C1` (stereo not drawn) [compound 3] here?
A: Its chromatographic logP is 3.77.

Q: With `CC(C)CC1Cc2cccc(NC(=O)c3cn(C)nc3C(F)F)c2C1` (stereo not drawn) [compound 4] as the compound, how does the chromatographic logP read?
A: Its chromatographic logP is 4.14.

Q: For `CC1c2cccc(NC(=O)c3cn(C)nc3C(F)F)c2CC1(C)C` (stereo not drawn) [compound 5], which chromatographic logP is on record?
A: The chromatographic logP was 3.53.

Q: With `CC1Cc2c(NC(=O)c3cn(C)nc3C(F)F)cccc2C1(C)C` (stereo not drawn) [compound 6] as the compound, how does the chromatographic logP read?
A: Its chromatographic logP is 3.55.
